The source of these data is publication PMC7605558 (bioRxiv, 2020).

In one assay the test system is SARS-CoV-2 pseudovirus. The format is cell-based.
For assay [1], the target named is T1, MERS-CoV M^pro (Middle East respiratory syndrome-related coronavirus, UniProt K9N7C7). As to the kind of experiment: biochemical.
Assay [2] concerns the target T2, HCoV-OC43 M^pro (Human coronavirus OC43, UniProt P0C6X6). As to the kind of experiment: biochemical.
In assay [3] the target is T3, SARS-CoV M^pro (Severe acute respiratory syndrome coronavirus, UniProt P0C6X7). As to the kind of experiment: biochemical.
For assay [4], the target named is T3, SARS-CoV M^pro. The assay is classed as binding.
Another assay relates to SARS-CoV-2. To be noted: read-out: SARS-CoV-2 (EC50, μM), cellular antiviral activity; CPE assay; cited from earlier work.
In another assay the test system is SARS-CoV. As to the kind of experiment: microbe, parasite or virus in culture. The assay is classed as cell-based. To be noted: Severe acute respiratory syndrome coronavirus, Vero 76, 96 h, read-out: SARS-CoV (EC50, μM).
Another assay relates to HCoV-NL63. As to the kind of experiment: microbe, parasite or virus in culture. The format is cell-based. To be noted: Human coronavirus NL63, read-out: HCoV-NL63 (EC50, μM).
In assay [5] the target is T2, HCoV-OC43 M^pro. The format is binding.
For another assay, the system named is SARS-CoV-2 M^pro. To be noted: cited from earlier work.
Another assay deals with HCoV-OC43. As to the kind of experiment: Combination therapy with remdesivir in HCoV-OC43 CPE assay. The format is cell-based. To be noted: combination ratios 8:1 to 1:8.
Assay [6] concerns the target T1, MERS-CoV M^pro. The format is binding.
For assay [7], the system named is HCoV-229E. As to the kind of experiment: microbe, parasite or virus in culture. To be noted: Human coronavirus 229E, read-out: HCoV-229E (EC50, μM). The assay is classed as cell-based.
Assay [8] addresses T3, SARS-CoV M^pro. To be noted: cited from earlier work.
In assay [9] the test system is HCoV-229E. To be noted: read-out: EC50 against HCoV-229E; cited from earlier work.

Where two headings read alike, the source gives them in different places.

T2 sequence (P0C6X6 3247-3549 limits assumed): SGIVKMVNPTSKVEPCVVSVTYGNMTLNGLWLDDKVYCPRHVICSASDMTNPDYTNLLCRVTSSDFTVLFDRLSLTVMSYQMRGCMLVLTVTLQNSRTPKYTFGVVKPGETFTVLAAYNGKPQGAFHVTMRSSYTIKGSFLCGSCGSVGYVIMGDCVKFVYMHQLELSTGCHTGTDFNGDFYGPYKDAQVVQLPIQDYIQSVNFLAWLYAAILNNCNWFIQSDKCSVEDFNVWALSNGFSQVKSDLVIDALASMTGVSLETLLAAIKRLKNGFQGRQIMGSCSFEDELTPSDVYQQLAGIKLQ
T1 sequence (K9N7C7 3248-3553 limits assumed): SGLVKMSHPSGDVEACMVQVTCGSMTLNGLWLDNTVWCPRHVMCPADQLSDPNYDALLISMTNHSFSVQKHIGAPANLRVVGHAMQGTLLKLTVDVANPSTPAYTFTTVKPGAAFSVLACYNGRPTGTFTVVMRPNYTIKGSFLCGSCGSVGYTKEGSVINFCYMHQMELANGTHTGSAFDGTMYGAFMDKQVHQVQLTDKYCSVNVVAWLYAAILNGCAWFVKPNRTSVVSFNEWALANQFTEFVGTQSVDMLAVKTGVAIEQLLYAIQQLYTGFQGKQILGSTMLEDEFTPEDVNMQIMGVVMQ

In the case of `CCOC(=O)[C@H]1O[C@@H]1C(=O)N[C@@H](CC(C)C)C(=O)NCCC(C)C` [E-64d], the IC50 (usually the concentration needed to halve the response being measured) with SARS-CoV-2 pseudovirus (read-out: IC50 of SARS-CoV-2 pseudovirus entry) came to 910 ± 100 nM.
For `CC(C)(C)NC(=O)N[C@H](C(=O)N1C[C@H]2[C@@H]([C@H]1C(=O)NC(CC1CCC1)C(=O)C(N)=O)C2(C)C)C(C)(C)C` (stereo partly drawn) [boceprevir], the IC50 was 10400 nM against MERS-CoV M^pro [1]; 9000 nM on HCoV-OC43 M^pro [2]; 6630 nM against SARS-CoV M^pro [3]; […] in the assay with SARS-CoV-2 M^pro (read-out: IC50 against SARS-CoV-2 M^pro, enzymatic assay). In addition, the values for the inhibitory constant (Ki) on MERS-CoV M^pro [1], at HCoV-OC43 M^pro [2] and at SARS-CoV M^pro [3] (KI against SARS-CoV M^pro) were 1650 ± 120 nM, 2290 nM and 1430 nM, respectively. Moreover, at SARS-CoV M^pro [4], the “SARS-CoV M^pro (ΔTm, °C)” value amounted to 3.94 ± 0.13 °C. The EC50 (as a rule, the midpoint of the concentration-response curve) in the assay on SARS-CoV-2 is 1.31 ± 0.58 µM; with SARS-CoV, 54.2 ± 7.76 µM; in the assay on HCoV-NL63, 16.9 ± 5.87 µM; in the assay on HCoV-229E [7], 14.1 ± 1.5 µM. Further, the “effect on cathepsin L-mediated SARS-CoV-2 pseudovirus entry” value in the assay on SARS-CoV-2 pseudovirus is “no effect”. Further, the “HCoV-OC43 M^pro (ΔTm, °C)” value on HCoV-OC43 M^pro [5] turned out to be 1.02 ± 0.05 °C. The “antiviral effect in combination with remdesivir (combination indices)” value with HCoV-OC43 is “additive antiviral effect”. The “MERS-CoV M^pro (ΔTm, °C)” value at MERS-CoV M^pro [6] amounted to 2.46 ± 0.07 °C.
Consider `CCC(CC)COC(=O)[C@H](C)N[P@](=O)(OC[C@H]1O[C@@](C#N)(c2ccc3c(N)ncnn23)[C@H](O)[C@@H]1O)Oc1ccccc1` [remdesivir], for which, in the assay with HCoV-NL63, the 50% effective concentration (EC50) was determined as 0.63 ± 0.041 µM. In addition, at HCoV-OC43 M^pro [5], the “HCoV-OC43 M^pro (ΔTm, °C)” value was 0.00 ± 0.02 °C and the “effect on HCoV-OC43 M^pro stability (Tm)” value is “no effect”. The half-maximal effective concentration (EC50) in the assay on HCoV-229E [7] came to 0.03 µM.
In the case of `CCOC(=O)/C=C/[C@H](C[C@@H]1CCNC1=O)NC(=O)[C@@H](CC(=O)[C@@H](NC(=O)c1cc(C)on1)C(C)C)Cc1ccc(F)cc1` [rupintrivir], the “inhibition of SARS-CoV M^pro” value on SARS-CoV M^pro [8] was “failed to inhibit”. Further, the EC50 in the assay with HCoV-229E [9] is 300 nM. For the same molecule, in the assay on SARS-CoV-2 M^pro, the “inhibition of SARS-CoV-2 M^pro” value is recorded as “failed to inhibit”.
